Data taken from article PMC3827198, “Characterisation of AmphiAmR11, an Amphioxus (Branchiostoma floridae) D2-Dopamine-Like G Protein-Coupled Receptor” (PLoS ONE, 2013).
Where a name gives a salt, the structure may show the parent alone.

Tests used:
CHO cell cyclic AMP = CHO cell cyclic AMP level after forskolin; format: cell-based, Chinese hamster; settings: 10 µM forskolin; basal 5.1 ± 1.7
Protocol: cAMP levels in stably transfected CHO-K1 cells were determined as described previously, except 100 µM isobutylmethylxanthine (IBMX) was used. cAMP levels are represented as a percentage of basal samples unless otherwise stated. Student’s T-test (two-tailed and unpaired) was used to test for significance. Unless otherwise stated, all data are shown as mean ± SEM. Each data point plotted was the mean of data obtained from at least three experiments. Within each experiment three separate replicate wells were analysed for each condition and the cAMP assays on each of the wells was carried out in duplicate.
Forskolin was used both to increase basal cAMP levels to make it easier to detect increases and decreases in cAMP levels in the same experiments and also to potentiate responses to agonists to more accurately determine their threshold effects [see 22]. A non-saturating 10 µM concentration of forskolin was used. Basal levels of CHO cell cyclic AMP were 5.1 ± 1.7 pmoles / mg protein (n = 3) and these were raised to 1053.7 ± 4.8 pmoles / mg protein after exposure to 10 µM forskolin. Protein levels were determined using a Bradford assay.

AmphiAmR11 [1] = biological target: T1, AmphiAmR11 (Branchiostoma floridae, UniProt A0PF35); experiment: ERK1/2 phosphorylation in AmphiAmR11-expressing CHO-K1 cells (Western blotting); format: cell-based; settings: 1 μM antagonist
T1 sequence (A0PF35 entry or part of it): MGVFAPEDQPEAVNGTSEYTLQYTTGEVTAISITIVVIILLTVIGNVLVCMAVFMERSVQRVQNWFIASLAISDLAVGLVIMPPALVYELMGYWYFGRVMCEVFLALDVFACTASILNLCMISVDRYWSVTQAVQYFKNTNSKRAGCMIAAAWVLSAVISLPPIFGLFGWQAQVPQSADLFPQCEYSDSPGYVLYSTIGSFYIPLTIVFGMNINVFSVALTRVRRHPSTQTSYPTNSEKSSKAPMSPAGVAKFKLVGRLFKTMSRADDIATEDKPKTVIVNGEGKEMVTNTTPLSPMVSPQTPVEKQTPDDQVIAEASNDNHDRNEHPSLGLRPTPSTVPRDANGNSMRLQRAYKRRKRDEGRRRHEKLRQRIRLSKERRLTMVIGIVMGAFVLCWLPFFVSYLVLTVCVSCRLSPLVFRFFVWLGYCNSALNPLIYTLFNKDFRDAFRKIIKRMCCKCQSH

AmphiAmR4 = tested on: AmphiAmR4; parameters: method as in PMID 23183848; settings: cited from earlier work
[2] = tested on: OctβRs, CG6989, CG6919 and CG7078; parameters: method as in PMID 15998303; settings: cited from earlier work
AmphiAmR11 [3] = biological target: T1, AmphiAmR11; experiment: Block of tyramine-induced inhibition of forskolin-stimulated cAMP levels in AmphiAmR11-expressing CHO-K1 cells; format: cell-based; settings: 1 μM antagonist, 30 nM tyramine, 10 µM forskolin
AmphiAmR11 [4] = biological target: T1, AmphiAmR11; experiment: Block of dopamine-induced ERK1/2 activation in AmphiAmR11-expressing CHO-K1 cells by antagonists; format: cell-based; settings: 1 µM antagonist, 10 nM dopamine, 5 min

SMILES | CHO cell cyclic AMP level after exposure to forskolin (CHO cell cyclic AMP) | Effect of antagonist on ERK1/2 phosphorylation in the absence of dopamine (AmphiAmR11 [1]) | Agonist activity at AmphiAmR4 (AmphiAmR4) | Agonist properties at Drosophila OctβRs [2] | Block of tyramine-induced inhibition of forskolin-stimulated cAMP levels (AmphiAmR11 [3]) | Block of dopamine-induced ERK1/2 activation (AmphiAmR11 [4])
C=C[C@@]1(C)CC(=O)[C@]2(O)[C@@]3(C)[C@@H](O)CCC(C)(C)[C@@H]3[C@H](O)[C@H](OC(C)=O)[C@@]2(C)O1 [forskolin, Forskolin] | 1053.7 ± 4.8 pmoles / mg protein |  |  |  |  | 
Cc1ccc(N(CC2=NCCN2)c2cccc(O)c2)cc1 [phentolamine, phentolamine hydrochloride] |  | did not exhibit any agonistic properties | agonist properties | agonist properties | fully block | fully block
